Reference: patent publication US9320748B2, “Immunologically useful arginine salts” (Novartis AG, priority 2012, dated 2016)
Several values for one entry are separate records, joined by “and”; a condition that tells them apart may be missing. Identical values can stand only once. Counter-ions that a name gives are not always drawn.

Experiments:
[1] = Photo-stability of bulk solid; type: physicochemical; settings: irradiated 1.2 million lux-hours, 40° C., 36 hours
Description: The L-arginine salt formed via the above method was tested for thermal- and photo-stability. For comparative purposes, the free base and the ammonium salt were also tested.
The bulk ammonium and arginine salts and the bulk free base of the compound of formula (I) were tested for photo-stability by being irradiated (1.2 million lux-hours), at 40° C. for a period of 36 hours.

[2] = Photo-stability in 50 mM phosphate buffer solution; type: physicochemical; settings: 50 mM phosphate buffer pH 6.8; irradiated 1.2 million lux-hours, 40° C., 36 hours
Description: The L-arginine salt formed via the above method was tested for thermal- and photo-stability. For comparative purposes, the free base and the ammonium salt were also tested. The arginine salt and the bulk free base of the compound of formula (I) were also tested for photo-stability in a solution of 50 mM phosphate buffer (pH 6.8) by being irradiated (1.2 million lux-hours), at 40° C. for a period of 36 hours. […] The ammonium salt was not tested.

[3] = Adsorption to aluminium hydroxide (RP-HPLC); type: physicochemical; settings: 1 mg/ml on 3 mg/ml aluminium hydroxide
Description: The adsorption efficiency of the compound was determined by RP-HPLC as being 99%.

[4] = Adsorption to aluminium phosphate adjuvant; type: physicochemical
Description: Adsorption of a L-arginine salt of the compound of formula (I) to a commercially-available aluminium phosphate adjuvant yielded an adsorption efficiency of 97% (as found by recovering the compound of formula (I) on desorption). […] However, the adsorption remained >90% when the aluminium phosphate adjuvant was treated with 10 mM potassium phosphate.
One formulation was prepared with 0.4 mg/ml of the compound of formula (I) of the L-arginine salt and 3 mg/ml of aluminium phosphate (expressed as Al^3+ concentration), 10 mM of histidine buffer (pH 6.5). Aluminium phosphate was treated overnight with various concentrations of potassium phosphate (10 mM, 50 mM, 100 mM, 250 mM and 500 mM) before the compound of formula (I) of the arginine salt was incubated with the aluminium phosphate.

[5] = Adsorption to calcium phosphate adjuvant; type: physicochemical; settings: pH 6.4, no histidine buffer, 1.12 mg/ml Ca2+
Description: Adsorption of a L-arginine salt of the compound of formula (I) to a commercially-available calcium phosphate adjuvant was studied at pH 6.4, without histidine buffer. Two formulations are prepared, both with 1.12 mg/ml Ca^2+ but with either 0.25 mg/ml or 0.125 mg/ml of the arginine salt. Adsorption was around 90% for both formulations.

[6] = Dynamic vapour sorption (DVS) water sorption; type: physicochemical; settings: 90% relative humidity
Description: Dynamic vapour sorption (DVS) experiments were conducted on the L-arginine salt obtained via the above method. […] The free base is also shown for comparison (●). DSC analysis of the arginine salt following DVS treatment was also conducted and the results pre- (♦) and post-DVS (▪) treatment are shown in FIG. 4. The free base is also shown for comparison (●). […] No form change is noted by the XRPD.

[7] = tested on: respiratory syncytial virus (RSV); assay: Anti-RSV titers after immunisation with trimeric F glycoprotein; type: in vivo, Balb/C mice; settings: 3 weeks after first dose; 1, 5, 50 μg SMIP adsorbed to Al—H, 3 μg F glycoprotein
Description: Trimeric F glycoprotein (3 μg) of respiratory syncytial virus (RSV) is formulated with the compound of formula (I) as a free base or as the arginine salt (1 μg, 5 μg, 50 μg) adsorbed to Al—H. For comparison the IC31™ adjuvant is also tested. Balb/C mice (6 per group) are immunized at days 0 and 21 and immune responses are assessed.

[8] = Thermal-stability at physiological pH; type: physicochemical; settings: for degradation (thermal-stability): physiological pH (7.4), 80° C., 7 days
Description: The L-arginine salt formed via the above method was tested for thermal- and photo-stability. For comparative purposes, the free base and the ammonium salt were also tested. The bulk ammonium and arginine salts and the bulk free base of the compound of formula (I) were also tested for thermal-stability at physiological pH (7.4) by heating at 80° C. for 7 days. […] This renders the ammonium salt unsuitable for use in pharmaceutical formulation and long term storage.

[9] = Effect of Al—H adsorption on serum peak and injection-site residence; type: in vivo; settings: adsorbed on Al—H versus non-adsorbed; mice and rats
Source text: Adsorption of the compound of formula (I) on Al—H reduced its peak serum concentrations and increased residence times at sites of intramuscular injection, as found for mice and rats preclinical species. This contributes greatly on modifying and controlling the level of systemic exposure avoiding the potential problem of proinflammatory cytokines in the blood, improving safety and/or tolerability of the compounds of formula (I).

in vivo = settings: mouse, im, 4 mg/kg
Description: A single dose of two different formulations (one containing the free base and the other the L-arginine salt of the compound of formula (I)) adsorbed to Al—H in 10 mM histidine buffer and in the presence of 3 MenB antigens were administered intramuscularly to mice at a dose of 4 mg/kg.

Cc1cc(OCCOCCOCCP(=O)(O)O)ccc1CCc1cnc2c(N)nc3cc(CCC(=O)O)ccc3c2c1 [ammonium salt]
degradation (photo-stability) [1]: 4.6%

Cc1cc(OCCOCCOCCP(=O)(O)O)ccc1CCc1cnc2c(N)nc3cc(CCC(=O)O)ccc3c2c1 [arginine salt, arginine salt of 3-(5-amino-2-(2-methyl-4-(2-(2-(2-phosphonoethoxyl)ethoxy)ethoxy)phenethyl)benzo[f][1,7]naphthyridin-8-yl)propanoic acid]
degradation (photo-stability in solution) [2]: 9.8%
adsorption efficiency [3]: 99%
% Adsorption ([4]; aluminium phosphate pre-treated with 10 mM potassium phosphate, listed as L-arginine salt): 93 ± 1%
% Adsorption ([4]; aluminium phosphate pre-treated with 50 mM potassium phosphate): 81.6 ± 0.1%
% Adsorption ([4]; aluminium phosphate pre-treated with 100 mM potassium phosphate): 60 ± 2%
% Adsorption ([4]; aluminium phosphate pre-treated with 250 mM potassium phosphate): 52 ± 0.1%
% Adsorption ([4]; aluminium phosphate pre-treated with 500 mM potassium phosphate): 65 ± 4%
% Adsorption ([4]; aluminium phosphate, no potassium phosphate pre-treatment (0 mM), 0.4 mg/ml compound, 3 mg/ml Al3+, 10 mM histidine pH 6.5, listed as L-arginine salt): 97% and 97 ± 1%
Adsorption ([5]; 0.125 mg/ml arginine salt): around 90%
Adsorption ([5]; 0.25 mg/ml arginine salt): around 90%
water taken on (DVS) [6]: approximately 18%
water taken on (DVS) ([6]; 4 g sample): approximately 13.71%
anti-RSV titers versus Al—H alone [7]: increased compared to Al—H alone
anti-RSV titers, arginine salt versus free base [7]: slightly higher titers than the free base
stability at high temperatures, compared with other form ([8]; high temperatures (80° C.), as in autoclaving): more stable than the ammonium salt
degradation (thermal-stability) [8]: 0.1%
degradation (photo-stability) [1]: 9.7%

Cc1cc(OCCOCCOCCP(=O)(O)O)ccc1CCc1cnc2c(N)nc3cc(CCC(=O)O)ccc3c2c1 [free base, 3-(5-amino-2-(2-methyl-4-(2-(2-(2-phosphonoethoxy)ethoxy)ethoxy)phenethyl)benzo[f][1,7]naphthyridin-8-yl)propanoic acid]
degradation (photo-stability in solution) [2]: 23.1%
peak serum concentrations [9]: reduced
residence times at sites of intramuscular injection [9]: increased
AUC(0-t) (in vivo): 4.54 µM·h
Cmax (in vivo): 453 nM
Tmax (in vivo): 0.67 h
half-life (in vivo): 8.48 h
anti-RSV titers versus Al—H alone [7]: increased compared to Al—H alone
degradation (thermal-stability) [8]: 18.1%
degradation (photo-stability) [1]: 12.36%
